Experiment [1] deals with Recombinant Cat D (Homo sapiens (Human), UniProt P07339). The experiment can be described thus: In vitro enzymatic Cathepsin D (Cat D) FRET assay. The format is biochemical. The following applies: read-out: IC50 IP (μM) CatD. The procedure, abridged: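 Cleavage of a 20 nM fluorophore/quencher peptide by CHO-expressed recombinant Cat D proceeded for one hour at pH 3.5 (0.05 M citrate, 5 mM CHAPS, 10% DMSO final). Tris addition neutralized the pH to end the reaction. Fluorescence was then measured (ex 500 nm/em 580 nm).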
Chain of Recombinant Cat D (P07339 65-412): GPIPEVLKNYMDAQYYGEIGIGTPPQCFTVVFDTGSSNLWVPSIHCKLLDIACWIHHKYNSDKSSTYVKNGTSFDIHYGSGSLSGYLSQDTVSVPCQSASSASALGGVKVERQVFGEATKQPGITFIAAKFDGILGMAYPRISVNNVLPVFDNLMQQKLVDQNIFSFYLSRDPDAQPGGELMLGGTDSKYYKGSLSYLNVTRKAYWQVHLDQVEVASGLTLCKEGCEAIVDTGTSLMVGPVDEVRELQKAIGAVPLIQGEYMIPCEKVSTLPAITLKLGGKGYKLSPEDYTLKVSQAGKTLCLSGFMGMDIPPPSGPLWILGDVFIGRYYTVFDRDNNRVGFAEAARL

Experiment [2] deals with human recombinant BACE1 (Homo sapiens (Human), UniProt P56817). Kind of experiment: In vitro enzymatic BACE1 FRET assay. Format: biochemical. The following applies: read-out: IC50 IP (μM) BACE1 enzyme. The procedure, abridged:
(§1)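 FRET cleavage assay using Ni-NTA-purified recombinant protease and 50 nM quenched peptide substrate, 1 h. Stopped by neutralising with Tris; fluorescence at 488/590 nm.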

For experiment [3], the system named is Aβ40 in conditioned medium of cells stably expressing Amyloid Precursor Protein (APP). The experiment can be described thus: In vitro BACE-1 cell-based assay (Aβ40 sandwich ELISA). The following applies: read-out: IC50 IP (μM) BACE1 cell. The method, boiled down:
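APP-stable cells, pre-cultured 24 h at 37° C in DMEM/10% FBS, were treated 24 h with compound in a 10-point series starting at 100 μM or 10 μM (0.1% DMSO final). Secreted Aβ40 in conditioned medium was measured by pAb40/biotin-6E10 sandwich ELISA with Europium time-resolved fluorescence; IC50 from percent inhibition versus concentration.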
On the technique in general: An ELISA detects its analyte on a solid surface through an enzyme-linked reagent.

For experiment [4], the system named is Aβ 40 in rat brain. Kind of experiment: In vivo inhibition of beta-secretase: Aβ40 reduction in rat brain. The following applies: 10 mpk, after 4 h. The procedure, abridged:
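Rats were dosed by oral gavage at up to 100 mg/kg in 2% HPMC, 1% Tween80, pH 2.2, with vehicle-only controls. Supernatant Aβ40 was measured by ECL sandwich ELISA with biotinylated-4G8 capture and C-terminal Fab40 detection.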

Experiment [5] has as its target human recombinant BACE2 (Homo sapiens (Human), UniProt Q9Y5Z0). The experiment can be described thus: In vitro enzymatic BACE2 FRET assay. Format: biochemical. Conditions: read-out: IC50 IP (μM) BACE2 enzyme. The method, boiled down: as §1
Experiment [6] has as its system Aβ 40 in rat CSF. Kind of experiment: In vivo inhibition of beta-secretase: Aβ40 reduction in rat CSF. The following applies: 10 mpk, after 4 h. The procedure, abridged: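 Male Sprague Dawley rats (200 g) dosed orally in 2% HPMC, 1% Tween80, pH 2.2, at 3, 10 or 30 mg/kg; CSF and brain taken 4 h later. Brain homogenate centrifuged at 355,000 g; Aβ40 measured by ECL sandwich ELISA (4G8 capture, Abeta40 C-terminal Fab detection), as % reduction versus vehicle controls.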

Bounds are passed on as bounds.

Chain of human recombinant BACE1 (P56817 46-501): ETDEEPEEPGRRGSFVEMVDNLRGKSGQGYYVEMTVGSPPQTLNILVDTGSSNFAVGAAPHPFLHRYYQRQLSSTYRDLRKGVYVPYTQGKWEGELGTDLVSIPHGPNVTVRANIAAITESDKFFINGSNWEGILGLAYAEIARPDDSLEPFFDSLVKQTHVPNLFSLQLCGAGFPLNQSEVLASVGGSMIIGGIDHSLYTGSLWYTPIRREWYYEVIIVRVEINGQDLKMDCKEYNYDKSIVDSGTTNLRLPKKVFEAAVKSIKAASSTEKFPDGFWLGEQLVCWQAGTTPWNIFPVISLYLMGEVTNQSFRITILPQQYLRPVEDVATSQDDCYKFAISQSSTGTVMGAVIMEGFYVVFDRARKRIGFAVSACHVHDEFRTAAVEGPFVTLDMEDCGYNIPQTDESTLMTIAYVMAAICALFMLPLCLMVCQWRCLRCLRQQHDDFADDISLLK
Chain of human recombinant BACE2 (Q9Y5Z0 63-518): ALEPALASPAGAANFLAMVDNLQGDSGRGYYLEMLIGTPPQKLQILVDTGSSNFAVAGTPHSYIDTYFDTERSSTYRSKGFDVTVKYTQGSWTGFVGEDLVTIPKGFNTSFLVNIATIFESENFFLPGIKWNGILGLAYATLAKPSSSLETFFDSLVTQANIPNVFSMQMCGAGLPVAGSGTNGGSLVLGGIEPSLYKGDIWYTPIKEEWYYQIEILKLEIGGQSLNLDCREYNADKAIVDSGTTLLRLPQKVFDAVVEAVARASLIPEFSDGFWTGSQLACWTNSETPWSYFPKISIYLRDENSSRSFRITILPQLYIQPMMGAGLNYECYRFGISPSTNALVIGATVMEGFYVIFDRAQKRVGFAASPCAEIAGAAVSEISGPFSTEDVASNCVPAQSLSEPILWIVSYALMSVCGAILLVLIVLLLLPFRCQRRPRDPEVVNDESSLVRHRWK

As usually defined, the IC50 is the concentration that gives 50% inhibition. Turning to `Cc1cc(OCC(F)(F)F)cnc1C(=O)Nc1cc(F)c(F)c([C@@]2(C)N=C(N)S[C@@]3(CF)C[C@H]32)c1` [Example 678, N-(3-((1S,5S,6S)-3-amino-1-(fluoromethyl)-5-methyl-2-thia-4-azabicyclo[4.1.0]hept-3-en-5-yl)-4,5-difluorophenyl)-3-methyl-5-(2,2,2-trifluoroethoxy)-2-pyridinecarboxamide], the 50% inhibitory concentration (IC50) is 747 µM in experiment [1], 0.00612 µM in experiment [2], 0.0286 µM in experiment [3] and 0.579 µM in experiment [5]. Moreover, in experiment [4], the “% Aβ 40 reduction in rat brain at 10 mpk” value is recorded as 11%. Also, the “% Aβ 40 reduction in rat CSF at 10 mpk” value in experiment [6] is reported as 40%.
As to `Cc1cc(OCC(F)(F)F)cnc1C(=O)Nc1cc(F)c(F)c([C@@]2(C)N=C(N)S[C@@]3(C(F)F)C[C@@H]23)c1` [Example 679, N-(3-((1S,5S,6S)-3-amino-1-(difluoromethyl)-5-methyl-2-thia-4-azabicyclo[4.1.0]hept-3-en-5-yl)-4,5-difluorophenyl)-3-methyl-5-(2,2,2-trifluoroethoxy)-2-pyridinecarboxamide], the 50% inhibitory concentration (IC50) in experiment [1] is 375 µM; in experiment [2], 0.00435 µM; in experiment [3] it was 0.0495 µM; in experiment [5] it was 0.746 µM. In addition, the “% Aβ 40 reduction in rat brain at 10 mpk” value in experiment [4] was determined as 6%. Moreover, in experiment [6], the “% Aβ 40 reduction in rat CSF at 10 mpk” value worked out at 20%.
With `Cc1cc(OCC(F)(F)F)cnc1C(=O)Nc1ccc(F)c([C@@]2(C)N=C(N)S[C@@]3(C(F)F)C[C@@H]23)c1` [Example 680, N-(3-((1S,5S,6S)-3-amino-1-(difluoromethyl)-5-methyl-2-thia-4-azabicyclo[4.1.0]hept-3-en-5-yl)-4-fluorophenyl)-3-methyl-5-(2,2,2-trifluoroethoxy)-2-pyridinecarboxamide], the half-maximal inhibitory concentration (IC50) was 1110 µM in experiment [1], 0.0139 µM in experiment [2], 0.0153 µM in experiment [3] and 0.846 µM in experiment [5]. The “% Aβ 40 reduction in rat brain at 10 mpk” value in experiment [4] is on record as 8%. In addition, the “% Aβ 40 reduction in rat CSF at 10 mpk” value in experiment [6] was determined as 30%.
For the molecule `Cc1cc(OCC(F)(F)F)cnc1C(=O)Nc1ccc(F)c([C@@]2(C)N=C(N)S[C@@]3(CF)C[C@H]32)c1` [Example 689, N-(3-((1S,5S,6S)-3-amino-1-(fluoromethyl)-5-methyl-2-thia-4-azabicyclo[4.1.0]hept-3-en-5-yl)-4-fluorophenyl)-3-methyl-5-(2,2,2-trifluoroethoxy)-2-pyridinecarboxamide], the IC50 in experiment [1] was more than 400 µM; in experiment [2] it was 0.0105 µM; in experiment [3], 0.0464 µM; in experiment [5], 0.819 µM. Besides, in experiment [4], the “% Aβ 40 reduction in rat brain at 10 mpk” value was found to be 10%. Besides, the “% Aβ 40 reduction in rat CSF at 10 mpk” value in experiment [6] is reported as 38%.
Take `C[C@]1(c2cc(NC(=O)c3ccc(OCC(F)(F)F)cn3)ccc2F)N=C(N)S[C@@]2(CF)C[C@H]21` [Example 697, N-(3-((1S,5S,6S)-3-amino-1-(fluoromethyl)-5-methyl-2-thia-4-azabicyclo[4.1.0]hept-3-en-5-yl)-4-fluorophenyl)-5-(2,2,2-trifluoroethoxy)-2-pyridinecarboxamide]: the half-inhibitory concentration (IC50) in experiment [1] was more than 400 µM; in experiment [2], 0.00629 µM; in experiment [3], 0.0315 µM; in experiment [5], 0.338 µM. Further, the “% Aβ 40 reduction in rat brain at 10 mpk” value in experiment [4] is 13%. In experiment [6], the “% Aβ 40 reduction in rat CSF at 10 mpk” value is recorded as 35%.
Turning to `COC[C@]12C[C@H]1[C@@](C)(c1cc(NC(=O)c3ccc(OCC(F)(F)F)cn3)ccc1F)N=C(N)S2` [Example 698, N-(3-((1S,5S,6S)-3-amino-1-(methoxymethyl)-5-methyl-2-thia-4-azabicyclo[4.1.0]hept-3-en-5-yl)-4-fluorophenyl)-5-(2,2,2-trifluoroethoxy)-2-pyridinecarboxamide], the half-inhibitory concentration (IC50) in experiment [1] was more than 400 µM; in experiment [2], 0.0086 µM; in experiment [3] it was 0.0116 µM; in experiment [5] it was 0.316 µM. Also, in experiment [4], the “% Aβ 40 reduction in rat brain at 10 mpk” value is recorded as −7%. Moreover, the “% Aβ 40 reduction in rat CSF at 10 mpk” value in experiment [6] is on record as 15%.
As for `C[C@]1(c2cc(Nc3nccc4nc(OCc5ncco5)cnc34)ccc2F)N=C(N)S[C@]2(CO)[C@H]1C2(F)F` [Example 705, ((1S,5S,6R)-3-amino-7,7-difluoro-5-(2-fluoro-5-((2-(1,3-oxazol-2-ylmethoxy)pyrido[3,4-b]pyrazin-5-yl)amino)phenyl)-5-methyl-2-thia-4-azabicyclo[4.1.0]hept-3-en-1-yl)methanol], the IC50 in experiment [1] was 183 µM; in experiment [2] it was 0.00186 µM; in experiment [3] it was 0.0035 µM; in experiment [5], 0.0184 µM. In experiment [4], the “% Aβ 40 reduction in rat brain at 10 mpk” value is given as 1%. Moreover, the “% Aβ 40 reduction in rat CSF at 10 mpk” value in experiment [6] is on record as 28%.
With `C#CCOc1cnc2c(Nc3ccc(F)c([C@@]4(C)N=C(N)S[C@]5(CO)[C@H]4C5(F)F)c3)nccc2n1` [Example 707, ((1S,5S,6R)-3-amino-7,7-difluoro-5-(2-fluoro-5-((2-(2-propyn-1-yloxy)pyrido[3,4-b]pyrazin-5-yl)amino)phenyl)-5-methyl-2-thia-4-azabicyclo[4.1.0]hept-3-en-1-yl)methanol], the concentration for half-maximal inhibition (IC50) in experiment [1] stood at 550 µM; in experiment [2] it was 0.000636 µM; in experiment [3], 0.00422 µM; in experiment [5], 0.0185 µM. For the same molecule, the “% Aβ 40 reduction in rat brain at 10 mpk” value in experiment [4] worked out at 25%. In addition, in experiment [6], the “% Aβ 40 reduction in rat CSF at 10 mpk” value is reported as 27%.
With `C[C@]1(c2cc(NC(=O)c3cnc(OCC(F)(F)C(F)F)cn3)ccc2F)N=C(N)S[C@]2(CO)[C@H]1C2(F)F` [Example 708, N-(3-((1S,5S,6R)-3-amino-7,7-difluoro-1-(hydroxymethyl)-5-methyl-2-thia-4-azabicyclo[4.1.0]hept-3-en-5-yl)-4-fluorophenyl)-5-(2,2,3,3-tetrafluoropropoxy)-2-pyrazinecarboxamide], the IC50 in experiment [1] worked out at 438 µM; in experiment [2], 0.000969 µM; in experiment [3], 0.0215 µM; in experiment [5], 0.107 µM. Also, in experiment [4], the “% Aβ 40 reduction in rat brain at 10 mpk” value is recorded as −4%. Moreover, the “% Aβ 40 reduction in rat CSF at 10 mpk” value in experiment [6] stood at 13%.
On to `C#CCOc1cnc2c(Nc3ccc(F)c([C@@]4(C)N=C(N)S[C@]5(C(C)(C)O)[C@H]4C5(F)F)c3)nccc2n1` [Example 712, 2-((1S,5S,6R)-3-amino-7,7-difluoro-5-(2-fluoro-5-((2-(2-propyn-1-yloxy)pyrido[3,4-b]pyrazin-5-yl)amino)phenyl)-5-methyl-2-thia-4-azabicyclo[4.1.0]hept-3-en-1-yl)-2-propanol], for which the half-maximal inhibitory concentration (IC50) in experiment [1] was 476 µM; in experiment [2] it was 0.000782 µM; in experiment [3] it was 0.00904 µM; in experiment [5] it was 0.0516 µM. Besides, the “% Aβ 40 reduction in rat brain at 10 mpk” value in experiment [4] was 32%. The “% Aβ 40 reduction in rat CSF at 10 mpk” value in experiment [6] was 52%.
Consider `COC[C@]12C[C@H]1[C@@](C)(c1cc(Nc3nccc4cc(OCc5ncco5)cnc34)cc(F)c1F)N=C(N)S2` [Example 727, N-(3-((1S,5S,6S)-3-amino-1-(methoxymethyl)-5-methyl-2-thia-4-azabicyclo[4.1.0]hept-3-en-5-yl)-4,5-difluorophenyl)-3-(1,3-oxazol-2-ylmethoxy)-1,7-naphthyridin-8-amine], for which the half-inhibitory concentration (IC50) in experiment [1] turned out to be 779 µM; in experiment [2], 0.00798 µM; in experiment [3] it was 0.00962 µM; in experiment [5], 0.359 µM. Also, the “% Aβ 40 reduction in rat brain at 10 mpk” value in experiment [4] is 18%. Moreover, the “% Aβ 40 reduction in rat CSF at 10 mpk” value in experiment [6] is reported as 38%.
On to `COC[C@]12C[C@H]1[C@@](C)(c1cc(Nc3nccc4cc(OCc5cocn5)cnc34)cc(F)c1F)N=C(N)S2` [Example 728, N-(3-((1S,5S,6S)-3-amino-1-(methoxymethyl)-5-methyl-2-thia-4-azabicyclo[4.1.0]hept-3-en-5-yl)-4,5-difluorophenyl)-3-(1,3-oxazol-4-ylmethoxy)-1,7-naphthyridin-8-amine], for which the half-inhibitory concentration (IC50) was 859 µM in experiment [1], 0.0238 µM in experiment [2], 0.0127 µM in experiment [3] and 0.553 µM in experiment [5]. In experiment [4], the “% Aβ 40 reduction in rat brain at 10 mpk” value is given as 23%. Moreover, in experiment [6], the “% Aβ 40 reduction in rat CSF at 10 mpk” value is on record as 31%.
With `CN(C)C(=O)/C=C/[C@]12C[C@H]1[C@@](CF)(c1cc(Nc3nccc4cc(OCc5ncco5)cnc34)ccc1F)N=C(N)S2` [Example 770, (2E)-3-((1R,5S,6S)-3-amino-5-(fluoromethyl)-5-(2-fluoro-5-((3-(1,3-oxazol-2-ylmethoxy)-1,7-naphthyridin-8-yl)amino)phenyl)-2-thia-4-azabicyclo[4.1.0]hept-3-en-1-yl)-N,N-dimethyl-2-propenamide], the half-inhibitory concentration (IC50) stood at 311 µM in experiment [1], 0.00294 µM in experiment [2], 0.00281 µM in experiment [3] and 0.143 µM in experiment [5]. Further, the “% Aβ 40 reduction in rat brain at 10 mpk” value in experiment [4] is reported as 6%. The “% Aβ 40 reduction in rat CSF at 10 mpk” value in experiment [6] stood at 22%.

Values taken from patent US20160046618A1, “Cyclopropyl Fused Thiazin-2-Amine Compounds as Beta-Secretase Inhibitors and Methods of Use” (AMGEN INC., priority 2014, published 2016).
